Read-outs that look alike come from different tables or passages of the source.
Assays:
Cryptosporidium parvum = assay: C. parvum growth inhibition, nonpolarized HCT-8 coculture assay; type: cell-based
From the text: Information regarding C. parvum growth inhibition by BKIs, the hollow fiber model, liquid chromatography–tandem mass spectrometry (LC-MS/MS) methods, and the interferon γ (IFN-γ) knockout (KO) mouse model of C. parvum infection has been described in detail previously [[15], [20–23]]. Information on BKI permeability, LC-MS/MS quantification of elacridar, and quantification of Cryptosporidium by polymerase chain reaction analysis is described in the Supplementary Materials. Unless noted otherwise, statistical significance was determined with an unpaired Student t test, using a significance level of 0.05.
To evaluate the potential impact of P-gp efflux on BKI1318 in vitro efficacy, in vitro assays with polarized and nonpolarized HCT-8 cells were evaluated. The nonpolarized HCT-8 coculture assay to screen anti-Cryptosporidium drug candidates has been previously reported by us in detail. […] Based on the reported elacridar half maximal inhibitor concentration for the inhibition of P-gp, the P-gp activity was predicted to be reduced with both elacridar concentrations. […] Elacridar alone had no effect on C. parvum levels.

[1] = In vitro solubility at pH 2 and 6.5; type: physicochemical; conditions: pH 2, represents stomach; read-out: Solubility (pH 2)
Method: Figure 1. Structures, in vitro efficacy, and physicochemical properties of bumped kinase inhibitors (BKIs). […] Solubilities for each BKI were measured at pH 2 and 6.5, to represent the stomach and small intestinal environments, respectively. The human effective permeability (Peff) was predicted as described in Materials and Methods.

[2] = Caco-2 trans-well apparent permeability assay; type: in vitro ADME; conditions: human, pH 7.4
Method: To initially characterize the permeability of BKIs 1294, 1369, and 1318, the software MedChem Designer (Simulations +, Lancaster, CA) was used to predict the Peff. The in vitro apparent permeability (Papp) was carried out by Absorption Systems LP (Exton, PA) with a Caco-2 trans-well assay. Caco-2 cells (clone C2BBe1) were obtained from American Type Culture Collection (Manassas, VA) were grown to confluence on collagen-coated, microporous membranes in 12-well assay plates. The permeability assay buffer was Hanks’ balanced salt solution (HBSS) containing 10 mM HEPES and 15 mM glucose at a pH of 7.4. The buffer in the receiver chamber also contained 1% bovine serum albumin. The dosing solution concentration was 5 µM BKI in assay buffer, and the cell monolayers were dosed on the apical side (A?B) or basolateral side (B?A) and incubated at 37°C with 5% CO2 in a humidified incubator. After 120 minutes, samples were taken from the donor and receiver chambers in duplicate. The Papp was calculated with equation (1) and the percent recovery with equation (2).
Papp = (dCr/dt) × Vr/(A × CA) (1)
Percent Recovery = 100 × ((Vr × Cr^final) + (Vd × Cd^final))/(Vd × […]) (2)
where dCr/dt is the slope of the cumulative concentration in the receiver compartment versus time in µM s^-1; Vr is the volume of the receiver compartment in cm^3; Vd is the volume of the donor compartment in cm^3; A is the area of the insert (1.13 cm^2 for 12-well); CA is the average of the nominal dosing concentration and the measured 120 minute donor concentration in µM; CN is the nominal concentration of the dosing solution in µM; Cr^final is the cumulative receiver concentration in µM at the end of the incubation period; Cd^final is the concentration of the donor in µM at the end of the incubation period.
(§1) To ensure no damage was inflicted to the cell monolayers during the flux period, lucifer yellow flux was also measured post-experimentally for each monolayer. To determine whether BKIs 1294, 1369, and 1318 were substrates of P-gp in vitro, P-gp efflux was characterized using the Caco-2 permeability assay protocol with a few modifications. The dosing solution concentration was 5 μM of BKI in the assay buffer +/- 1 μM valspodar. Cells were first pre-incubated for 30 minutes with HBSS containing +/- 1 μM valspodar. Cell monolayers were dosed on the apical side (A?B) or basolateral side (B?A), and incubated at 37°C with 5% CO2 in a humidified incubator. Samples were taken from the donor and receiver chambers at 120 minutes. Each determination was performed in duplicate.

P-gp = target: T1, P-gp (Homo sapiens, UniProt P08183); assay: Caco-2 P-gp efflux assay +/- valspodar; type: in vitro ADME; conditions: Caco-2
T1 construct: endogenous in cells; host or cells: Caco-2 cells (clone C2BBe1, ATCC); assay run by Absorption Systems LP
From the text: Given the well-known role of P-gp in the efflux of many diverse drugs, the adenosine triphosphate–binding cassette (ABC) transporter was specifically chosen for initial studies, to identify the transporter responsible for BKI1318’s relatively low Papp. A Caco-2 system with overexpression of P-gp was used to verify the role of P-gp in BKI1318 transport (Supplementary Table 2). […] It should be noted that this experiment characterized the importance of P-gp with a single concentration of BKI1318. The kinetics of BKI1318 transport mediated by P-gp are still unknown, and it is not clear how the fraction of absorption mediated by P-gp transport will change with different concentrations of BKI1318.
as §1

C. parvum [3] = assay: Hollow fiber in vitro Cryptosporidium culture with polarized HCT-8 cells; type: cell-based, Cryptosporidium parvum
Method: C. parvum was cultured using a hollow fiber bioreactor modified for evaluation of potential chemotherapeutic compounds [[21–23]]. Briefly, the system used a 20-kD MWCO polysulfone fiber cartridge (FiberCell Systems, Frederick, MD). HCT-8 cells were grown on the outer surface of the fibers (extracapillary space), and reservoirs were used to provide nutrients to the cells. When the glucose concentration decreased to at least 2 g/L, the extracapillary space was inoculated with 10^6C. parvum (Iowa isolate, Bunch Grass Farms, Deary, ID). […] Compound concentration was reduced over time by the flow of medium through the extracapillary and intracapillary spaces. Samples were removed from the extracapillary space once per day for evaluation of parasite numbers.
C. parvum growth was determined by analysis of the amount of C. parvum 18S-rRNA present and compared to the HCT-8 18S-rRNA as previously described^3. Briefly this was performed by centrifugation at 14,000 x g for 5 min of 0.5 mL samples collected from the extracapillary space (ECS). The pellet was resuspended in 100 µL of iScript buffer and subject to 6-freeze/thaw cycles comprising 1 min in liquid nitrogen followed by 1.5 min at 70 °C. The lysate was collected by centrifugation at 16,162 x g for 5 min, and the RNA purified according to the manufacturer’s instructions (iScriptTM, RT-qPCR sample preparation kit, Bio-Rad Laboratories). C. parvum was enumerated by quantitating the Cp18S-rRNA using the following specific forward and reverse primers - Cp18S-995F: 5’-[…]-3’ and Cp18S-1206R: 5’-[…]-3’ and compared to the human Hs18S-rRNA using the following primer sets - Hs18S-F1373: 5’-[…]-3’ and Hs18S-R1561: 5’-[…]-3’. The amount of 18S-rRNA was determined using 5 ng samples by RT-qPCR as described the manufacturer instructions using a Luna Universal One-Step® RT-qPCR kit (New England Biologics) and a Quant Studio 6 Flex 44 instrument. The cell number is calculated from the CT means using a set of standards prepared from 10^4, 10^5, and 10^6 C. parvum oocysts and compared to 10^4, 10^5, and 10^6 HCT-8 cells.

C. parvum [4] = tested on: C. parvum; set-up: method as in PMID 28329187; conditions: previously published study; cited from earlier work
Cryptosporidium = tested on: Cryptosporidium; set-up: method as in PMID 28329187; conditions: cited from earlier work
[5] = Mouse gastrointestinal tissue pharmacokinetics; type: in vivo, mice; conditions: mouse, oral; for AUC(0-t): read-out: AUC0-12; for Cmax: read-out: Observed Cmax; for Tmax: read-out: Tmax
Method: At multiple time points following BKI1318 administration, mice were euthanized, and the GI tract was separated into segments corresponding to the duodenum, jejunum, ileum, and cecum/colon. […] At 0.5, 1, 2, 4, 8, and 12 hours, three mice in each group were sacrificed by cervical dislocation, and the duodenum, jejunum, ileum, and cecum/ascending colon were immediately collected. Each section of the GI tract was flushed with Dulbecco's phosphate-buffered saline, weighed, and placed in storage at -80°C. On the day of homogenization, 0.9% NaCl was added to each sample to achieve 200 mg/mL tissue concentration. Samples were homogenized using a handheld motorized homogenizer (Fisher Scientific, Waltham, MA) on ice and stored at -20°C until extraction and analysis. To report tissue concentrations, 1 gram of tissue was estimated to be 1 mL of volume.

C. parvum [6] = assay: IFN-γ KO mouse model of Cryptosporidium infection; type: in vivo, mice; conditions: IFN-γ KO mice
Method: Efficacy in female IFN-γ KO mice (B6.129S7-Ifngtm1Ts/J; Jackson Laboratories) aged 8–10 weeks was evaluated as previously described. Beginning on day 6 after infection, mice were dosed with 30 mg/kg BKI1318 suspended in 0.2 mL of vehicle, 15 mg/kg elacridar in 0.1 mL of vehicle followed 15 minutes later by 30 mg/kg BKI1318 in 0.1 mL of vehicle, or 0.2 mL of vehicle only once daily for 5 days. Fecal specimens were collected daily from each group and weighed. Each fecal sample was checked for luminescence on the day of collection, and the number of relative light units was determined and normalized to fecal sample weights.

[7] = cecum/colon, elacridar in Cecum/Colon
[8] = duodenum, elacridar in Duodenum

T1 sequence (P08183 whole entry): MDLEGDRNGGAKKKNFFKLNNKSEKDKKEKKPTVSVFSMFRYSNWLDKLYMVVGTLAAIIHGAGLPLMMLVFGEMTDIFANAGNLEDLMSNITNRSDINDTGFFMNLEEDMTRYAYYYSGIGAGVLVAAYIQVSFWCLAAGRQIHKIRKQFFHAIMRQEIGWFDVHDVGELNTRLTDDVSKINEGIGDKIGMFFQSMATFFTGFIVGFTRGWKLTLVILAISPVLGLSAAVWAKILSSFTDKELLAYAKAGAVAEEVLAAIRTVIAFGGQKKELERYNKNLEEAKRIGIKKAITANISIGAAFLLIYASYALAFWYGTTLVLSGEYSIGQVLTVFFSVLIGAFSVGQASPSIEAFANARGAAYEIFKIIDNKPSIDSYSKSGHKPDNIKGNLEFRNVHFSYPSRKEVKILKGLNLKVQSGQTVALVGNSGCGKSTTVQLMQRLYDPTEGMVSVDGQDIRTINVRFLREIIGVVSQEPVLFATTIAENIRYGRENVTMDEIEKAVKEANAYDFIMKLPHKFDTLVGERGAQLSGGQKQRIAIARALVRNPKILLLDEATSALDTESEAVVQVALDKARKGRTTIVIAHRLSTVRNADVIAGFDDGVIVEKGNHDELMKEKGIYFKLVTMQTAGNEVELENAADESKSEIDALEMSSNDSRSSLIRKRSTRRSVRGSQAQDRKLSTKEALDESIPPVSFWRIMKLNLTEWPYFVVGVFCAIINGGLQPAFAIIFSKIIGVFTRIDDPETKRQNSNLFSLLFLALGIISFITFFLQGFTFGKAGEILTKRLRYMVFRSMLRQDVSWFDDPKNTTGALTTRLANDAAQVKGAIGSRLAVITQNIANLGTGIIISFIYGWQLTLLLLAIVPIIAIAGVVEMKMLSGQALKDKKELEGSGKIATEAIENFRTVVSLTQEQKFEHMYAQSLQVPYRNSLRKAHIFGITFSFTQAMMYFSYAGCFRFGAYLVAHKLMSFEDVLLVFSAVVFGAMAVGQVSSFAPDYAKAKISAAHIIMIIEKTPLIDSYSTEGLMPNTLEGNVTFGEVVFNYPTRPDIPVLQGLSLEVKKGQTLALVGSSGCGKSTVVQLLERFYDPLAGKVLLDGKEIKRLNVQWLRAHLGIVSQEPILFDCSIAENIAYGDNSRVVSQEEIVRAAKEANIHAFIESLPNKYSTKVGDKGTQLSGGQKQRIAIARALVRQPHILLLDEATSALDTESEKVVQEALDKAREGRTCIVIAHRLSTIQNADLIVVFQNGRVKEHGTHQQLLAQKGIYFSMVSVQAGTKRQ

Q: Which EC50 (Cryptosporidium parvum; Cryptosporidium parvum, HCT-8, in vitro, read-out: C. parvum EC50) does the source give for `CCOc1ccc2cc(-c3nn(CC4CCN(C)CC4)c4ncnc(N)c34)ccc2c1` [BKI1294] here?
A: 2700 nM

Q: And the solubility [1]?
A: > 100 µM

Q: And the recovery at 120 min, 5 µM ([2]; Caco-2 assay, A→B for BKI 1294, read-out: Percent recovery)?
A: 62%

Q: What about the Papp A→B at 120 min, 5 µM ([2]; Caco-2, 5 µM, 120 minutes) of the same compound?
A: 12.7 ×10⁻⁶ cm/s

Q: What about the Papp B→A at 120 min, 5 µM ([2]; Caco-2, 5 µM, 120 minutes) of the same compound?
A: 22.6 ×10⁻⁶ cm/s

Q: And the “P-gp Substrate Classification” value (P-gp)?
A: Negative

Q: And the “Reduction of C. parvum levels over the course of the study” value (C. parvum [3]; hollow fiber model, polarized HCT-8 cells)?
A: > 3 orders of magnitude

Q: And the “Reduction in C. parvum level by 24 hours after the final dose, on day 4” value (C. parvum [3]; hollow fiber, once per day for 4 days, BKI1294 80 µM, BKI1369 40 µM)?
A: > 6 log

Q: And the “C. parvum reduction in mouse model of cryptosporidiosis” value (C. parvum [4])?
A: > 2 log

Q: And the “Efficacy in neonatal mouse model of Cryptosporidium infection” value (Cryptosporidium)?
A: efficacious

Q: With `CC(C)NCC(O)COc1cccc2ccccc12` (stereo not drawn) [Propranolol, reference compound] as the compound, how does the Papp A→B at 120 min, 5 µM ([2]; Caco-2, 5 µM, 120 minutes) read?
A: 23.2 ×10⁻⁶ cm/s

Q: For `C[C@H]1O[C@@H](O[C@H]2[C@@H](O)C[C@H](O[C@H]3[C@@H](O)C[C@H](O[C@H]4CC[C@@]5(C)[C@H](CC[C@@H]6[C@@H]5C[C@@H](O)[C@]5(C)[C@@H](C7=CC(=O)OC7)CC[C@]65O)C4)O[C@@H]3C)O[C@@H]2C)C[C@H](O)[C@@H]1O` [digoxin, reference compound], which “P-gp Substrate Classification” value (P-gp) is on record?
A: Positive

Q: With `COc1cc2c(cc1OC)CN(CCc1ccc(NC(=O)c3cccc4c(=O)c5cccc(OC)c5[nH]c34)cc1)CC2` [elacridar, reference compound] as the compound, how does the “Effect on C. parvum levels” value (Cryptosporidium parvum; nonpolarized HCT-8 cells, compound alone) read?
A: no effect

Q: And the AUC(0-t) [5, 7]?
A: 12.6 ± 8.5 µM·h

Q: What about the Cmax [5, 7] of the same compound?
A: 3.3 ± 3.1 µM

Q: What about the Tmax [5, 7] of the same compound?
A: 6 h

Q: What about the AUC(0-t) [5, 8] of the same compound?
A: 118 ± 4.9 µM·h

Q: What about the Cmax [5, 8] of the same compound?
A: 61.2 µM

Q: What about the Tmax [5, 8] of the same compound?
A: 0.6 h

Q: And the AUC(0-t) ([5]; ileum, elacridar in Ileum)?
A: 170 ± 45.7 µM·h

Q: What about the Cmax ([5]; ileum, elacridar in Ileum) of the same compound?
A: 35.2 µM

Q: And the Tmax ([5]; ileum, elacridar in Ileum)?
A: 1.7 h

Q: What about the AUC(0-t) ([5]; jejunum, elacridar in Jejunum) of the same compound?
A: 104 ± 21.4 µM·h

Q: What about the Cmax ([5]; jejunum, elacridar in Jejunum) of the same compound?
A: 32.6 µM

Q: What about the Tmax ([5]; jejunum, elacridar in Jejunum) of the same compound?
A: 0.6 h

Q: And the “Effect on C. parvum levels/growth” value (C. parvum [3]; hollow fiber model, compound alone, 80 µM once daily)?
A: no effect

Q: What about the “Effect on Cryptosporidium infection, administered alone” value (C. parvum [6]) of the same compound?
A: no effect

Reference: article PMC6736360, “P-Glycoprotein–Mediated Efflux Reduces the In Vivo Efficacy of a Therapeutic Targeting the Gastrointestinal Parasite Cryptosporidium” (The Journal of Infectious Diseases, 2019)
